Measured values published in US7179821B2, “Method of treating of demyelinating diseases or conditions” (Aventis Pharmaceuticals Inc., priority 2001, dated 2007).
Marks after values point to notes of the source that are not given here.

Legend:
[1] = system: voltage-dependent K+ channels; assay: Potassium channel currents in PC12 cells, patch clamp; format: cell-based; conditions: 10 μM, 200 msec clamp pulses to +40 mV from −80 mV, n=4
Protocol: PC12 cells (ATCC, Rockville, Md.) were grown in Dulbecco's modified Eagle's media supplemented with 10% fetal bovine serum (GIBCO BRL Grand Island, N.Y.). Potassium channel currents were measured using standard patch clamp electrophysiolgy protocols as detailed previously (Rampe et al., 1998).
Potassium channel currents were elicited by 200 msec clamp pulses to +40 mV from a holding potential of −80 mV. […] Application of HP184 (10 μM) reduced the amplitude of this current and enhanced the rate of current decay. When current was measured at the end of the pulse, HP184 reduced current amplitude by 75±4% (n=4). The results are consisent with the notion that HP184 acts as an antagonist of voltage-dependent K^+ channels by blocking an activated state.

[2] = system: spinal cord crush-induced motor impairments; assay: Acute treatment after moderate spinal cord crush (1.4 mm), Open Field Walking Scale; format: in vivo, rat
[3] = system: long-standing (25 days) spinal cord injury of minor intensity; assay: Chronic crush experiment, 25-day old mild compression injury (1.6 mm), OFT score; format: in vivo, rat; conditions: for OFT score 3 hours after last dose (Day 28, mild) / OFT score 3 hours after last dose: three consecutive daily doses; for OFT score prior to dose (Day 25, mild): group 3 mg/kg po; for OFT score prior to dose (Day 25, mild) / OFT score prior to dose: baseline before dosing
From the text: Normal spinal cord diameter is approximately 2.5 mm. This compression represents a moderate injury characterized by initial open field walking scores of 1.5–2.5 in the Open Field Walking Scale. […] The spinal cords of female rats were exposed to laminectomy or crush to a diameter of 1.6 mm. This represented a minor injury, and was designed to result in OFT scores of 4.0 after 25 days of no treatment. […] In this experiment, OFT scores were slightly higher (4.3–4.5), leaving only a small window for improvement. […] Consistent improvement was also observed after once a day ip 0.6 mg/kg 4-AP as well. The statistical differences were based upon the changes for each individual rat (each rat was its own control) using Mann-Whitney U-test. All the behavioral tests on day1, day2 and day3 were performed at 3 hours after gavage. There was no drug given on day3 (first day started to give drug was day 0).

[4] = system: moderate chronic (35 days post-injury) spinal cord crush; assay: Long standing moderate spinal cord crush (35 days), OFT score; format: in vivo, rat
From the text: A tabular representation of the results from both chronic spinal cord injury studies (drugs first administered 25 days after a mild spinal cord crush and 35 days after a moderate spinal cord crush) are shown in Table 5.
One hundred fifty adult female Wistar rats, 250–300 g weight, obtained from Charles River were housed in the McMaster University Health Sciences Centre (HSC) Central Animal Facilities (CAF) for at least one week. During that time they were exposed to the performance tests described below, to ensure they were familiar with them. Rats were handled daily for 2 weeks prior to surgery.
Rats were anesthetized using isoflurane (3–5%): O2 (1 L/min) in an appropriately equipped surgical suite in the CAF. Temgesic (0.03 mg/kg body weight, subcutaneously (SQ)) was administered prior to surgery for pain relief. Spinal cords were crushed (compressed) with a 3.5 mm wide modified coverslip forceps (Blight 1991, procedure revised by Rathbone laboratory). The forceps were closed to 1.4 mm for 15 sec, which produced injury level equivalent to the mid-level (moderate) outcome on the Gruner scale (1996). The compression injury was otherwise performed according to the procedure described by Blight (1991).
Changes in locomotor behaviour and segmental reflexes were assessed up to 5 weeks post injury. Animals were tested in an open field walking task, hind limb placement and foot orientation. The animals were evaluated on days 2, 7, 14, 21, 28 and 35 after surgery. By 35 days after surgery, almost no further spontaneous recovery occurs. Therefore treatment began on day 35.
HP184 was dissolved in sterilized (autoclaved) deionized reverse-osmosis water acidified with glacial acetic acid (0.1 ml acid per 10 ml of water). 4-AP (Sigma, molecular weight 94.12; Jankowska E. et al., 1982; Gruner et al., 1999) was dissolved in physiological saline (0.6 mg/kg b.w.) and was administered by i.p. injection. One group of rats (vehicle control-1) received by oral gavage vehicle. Behaviourial testing was done immediately prior to receiving the gavage and at 3 hours thereafter. Then, the rats were scarified on day 35. All the other rats received either HP184 by oral gavage (0.3, 1, or 3 mg/kg bw depending on the group) or 4-AP (0.6 mg/kg, i.p.) or vehicle (vehicle control-2) once a day on the 35 to 42 days after surgery. On these days behaviourial tests were done immediately prior to receiving the gavage at 3 and 24 hours thereafter. Then, the rats were perfused on day 43 after the last behaviourial testing.
Statistical analyses were performed on a Macintosh computer using GB-Stat ppc 6.5.2. The behavioral scores were analyzed by the Kruskal-Wallis nonparametric analysis of variance (ANOVA). Post hoc comparisons were made using Mann-Whitney U tests.

acute bladder irritation = assay: Bladder irritation in the rat (protamine sulfate/KCl model), continuous open cystometry; format: in vivo; conditions: intravenous, cumulative dose-response, urethane anesthetized rats, P=0.0019
Protocol: Fraser et al combined protamine sulfate treatment, thought to breakdown urothelial umbrella cell barrier function, and physiologic urine concentrations of KCl (500 mM). The effects of intravenous HP-184 were compared to vehicle alone (n=4/group) in a cumulative dose-response study in urethane anesthetized rats with acute bladder irritation. Continuous open cystometry, which measures the filling and emptying of the bladder during continuous infusion, was utilized to determine the effect of the drug on bladder irritation. When the bladder is irritated, it contracts more frequently during the same filling rate due to sensitization of C-fiber afferent nerves. FIG. 8 illustrates the dose-dependent decrease in bladder contraction frequency from pre-administration irritation values compared to the effects of vehicle alone.

[5] = system: moderate chronic (35 days post-injury) spinal cord crush; assay: Long standing moderate spinal cord crush (35 days), OFT score; format: in vivo, rat; conditions: 3 mg/kg po, thirty-five days after moderate injury, single dose then daily for 4 more days

CCCN(c1ccncc1F)n1cc(C)c2ccccc21 [HP184, N-(3-fluoro-4-pyridinyl)-N-propyl-3-methyl-1H-indole-1-amine]
reduction of current amplitude at the end of the pulse [1]: 75±4% | rate and extent of improvement of OFT score ([2]; 20 and 5 mg/kg ip within 15 minutes of crush, repeated days 2 and 3, FIG. 2): significantly different from vehicle treated rats | rate and extent of improvement of OFT score ([2]; po 5–10 minutes prior to crush, then once a day days 2 and 3, vs vehicle treated group, FIG. 3): improved for all doses | OFT improvement compared to vehicle control (Mann-Whitney U-test) ([3]; 3 mg/kg po once a day, p=0.0027): significant improvement at 30 min to 6 h to day 1 | OFT score 3 hours after last dose (Day 28, mild) ([3]; 3 mg/kg po once a day): 4.47 ± .035 | OFT score 3 hours after last dose (Day 28, mild) ([3]; 3 mg/kg po once a day, listed as HP): 4.47 ± 0.04 | OFT improvement compared to vehicle control (Mann-Whitney U-test) ([3]; 10 mg/kg po once a day, p=0.014): significant improvement at 30 min and 3 h to 12 h | OFT score 3 hours after last dose ([3]; 10 mg/kg po once a day): 4.44 ± 0.03 | OFT improvement compared to vehicle control (Mann-Whitney U-test) ([3]; 20 mg/kg po once a day, p=0.002): significant improvement at 3 h to day 3 | OFT score 3 hours after last dose ([3]; 20 mg/kg po once a day): 4.60 ± 0.02 | % possible improvement (highest score = 5), mild ([3]; 3 mpk po): 22.0%* | Delta of OFT score, Day 25 to Day 28 (mild) ([3]; 3 mpk po): .15 | OFT score prior to dose (Day 25, mild) [3]: 4.32 ± .016 | OFT score prior to dose (Day 25, mild) ([3]; listed as HP): 4.32 ± 0.05 | OFT score prior to dose ([3]; group 10 mg/kg po): 4.36 ± 0.01 | OFT score prior to dose ([3]; group 20 mg/kg po): 4.54 ± 0.02 | recovery of locomotor function, comparison of the doses ([4]; 3 mg/kg po vs 0.3 and 1 mg/kg, days 35–42): produced the best recovery of locomotor function | % possible improvement, moderate ([4]; 3 mpk po): 24.8%* | Delta of OFT score, Day 35 to Day 39 (moderate) ([4]; 3 mpk po): .274 | OFT score Day 39 (moderate) 3 hrs after last dose ([4]; 3 mpk po daily): 4.17 ± .058 | open field locomotor ability (mean OFT scores) vs vehicle, FIGS. 6a and 6b ([4]; HP184 0.3, 1 or 3 mg/kg po or 4-AP 0.6 mg/kg ip once a day, days 35–42, treatment effect p<0.01): significantly different from that of control animals receiving vehicle | OFT score Day 35 (moderate) prior ([4]; group 3 mpk po, baseline before dosing): 3.89 ± .054 | bladder contraction frequency in irritated bladders, FIG. 8 (acute bladder irritation): significantly decreased bladder contraction frequency in irritated bladders in a dose-dependent fashion | motor recovery, Open Field Walking Test [5]: improves motor recovery after a single dose
